Columns and labels:
OleTJE = target: T1, OleTJE (Jeotgalicoccus sp. ATCC 8456, UniProt E9NSU2); assay: GC of styrene / styrene oxide formation in coupled reaction with purified P450-BM3 SO5; type: biochemical; settings: no external H2O2, H2O2 from SO5 uncoupling
T1 construct: gene JEM45_03820; recombinant; purified enzyme or lyophilized cell-free lysate powder
T1 sequence (E9NSU2 1-422): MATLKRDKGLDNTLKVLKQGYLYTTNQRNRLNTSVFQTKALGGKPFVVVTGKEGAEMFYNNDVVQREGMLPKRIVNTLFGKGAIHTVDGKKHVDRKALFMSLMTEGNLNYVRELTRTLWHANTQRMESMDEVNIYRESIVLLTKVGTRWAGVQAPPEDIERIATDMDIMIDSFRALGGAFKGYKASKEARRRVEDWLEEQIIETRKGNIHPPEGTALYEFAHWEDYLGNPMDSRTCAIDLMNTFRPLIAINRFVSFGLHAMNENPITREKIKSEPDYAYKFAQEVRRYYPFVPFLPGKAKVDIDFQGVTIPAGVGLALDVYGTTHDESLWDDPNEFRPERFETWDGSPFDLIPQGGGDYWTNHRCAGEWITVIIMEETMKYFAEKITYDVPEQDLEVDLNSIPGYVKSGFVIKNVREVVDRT

ANEH = target: T2, ANEH (Aspergillus niger, UniProt Q9UR30); assay: one-pot cascade with lyophilized lysate powders, conversion to diol; type: biochemical; settings: 50 mM PBS pH 8.0, 300 mM NaCl; epoxide formed in situ by P450-BM3 SO5
T2 construct: gene hyl1; recombinant, co-expressed with P450-BM3 SO5 under the same T7 promoter; lyophilized cell-free lysate powder
T2 sequence (Q9UR30 1-398): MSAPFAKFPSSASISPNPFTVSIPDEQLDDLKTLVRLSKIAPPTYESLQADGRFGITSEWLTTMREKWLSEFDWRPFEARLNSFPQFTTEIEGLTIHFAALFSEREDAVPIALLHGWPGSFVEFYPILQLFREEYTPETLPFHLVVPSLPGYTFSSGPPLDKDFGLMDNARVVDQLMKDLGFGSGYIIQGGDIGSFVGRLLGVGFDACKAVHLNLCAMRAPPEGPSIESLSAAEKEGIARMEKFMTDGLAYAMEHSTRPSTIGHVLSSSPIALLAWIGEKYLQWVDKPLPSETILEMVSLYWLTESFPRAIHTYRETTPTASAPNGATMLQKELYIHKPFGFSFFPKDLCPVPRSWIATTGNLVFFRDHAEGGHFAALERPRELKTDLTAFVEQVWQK

Compound	GC of styrene / styrene oxide formation in coupled reaction with purified P450-B (OleTJE)	one-pot cascade with lyophilized lysate powders, conversion to diol (ANEH)
C=Cc1ccccc1 [styrene]	OleT-Catalyzed Reaction B Supplies the Necessary Styrene from 3-Phenyl Propionic Acid	–
O=C(O)CCc1ccccc1 [1a, 3-phenyl propionic acid]	purified OleTJE was mixed with the purified SO5 variant, and tested in the model reaction	–
c1ccc([C@@H]2CO2)cc1 [(R)-styrene oxide]	–	selective hydrolytic ring-opening of the respective epoxide catalyzed by the epoxide hydrolase
